This is an account of results in US20020028474A1, “Composition for immunohistochemical staining” (DAIICHI PURE CHEMICAL CO., LTD., priority 1996, published 2002).

Type in all cases: physicochemical
The nature of data set [1]: Fluorescence intensity enhancing effect versus octyl glucoside concentration (Example 3). To be noted: for Fluorescence intensity (standard): 1 ppm, λex=251 nm, λem=450 nm; for Fluorescence wavelength / Fluorescence intensity: excitation 768 nm; for Fluorescence intensity: labeled anti-mucin antibody 83.3 nM, 50° C. The protocol: The final antibody concentration in the diagnostic markers was 83.3 nM, and the IOG-sulfo-OSu concentration was 1.33 μM. Fluorescence spectra of the samples were measured in the same manner as in Example 2. The slit width was 2 nm for each of excitation light and fluorescence.

Data set [2] can be described thus: Fluorescence spectrum of compositions of ICG-sulfo-OSu-labeled mouse anti-mucin antibody with fluorescence intensity enhancing agents (Example 2). Particulars: 1 ppm, λex=255 nm, λem=451 nm. The protocol:
The above diagnostic marker in the form of lyophilized product obtained from the mouse anti-mucin antibody (100 μg) was added with 4.0 ml of phosphate buffered saline and dissolved. 1.5 ml of the resulting solution was added with 1.5 ml of a solution of the fluorescence intensity enhancing agent of the present invention, and then the mixture was warmed over a water bath at 50° C. to prepare a final sample. As a control, a solution was prepared in the same manner by adding 1.5 ml of phosphate buffered saline. The final antibody concentration in the diagnostic marker was 83.3 nM, and the ICG-sulfo-OSu concentration was 1.33 μM. Fluorescence spectrum of each sample was measured by using a Hitachi spectrophotometer 650-40. The slit width was 5 nm for each of excitation light and fluorescence.

The nature of data set [3]: Fluorescence observed by infrared ray microscope on cotton gauze thread, with or without sodium distearoylphosphatidate/octyl glucoside solution (Example 1). Further details: key: +++: Definitely bright; ++: Bright.; +: Observable; ±: Slightly observable. To be noted: for Fluorescence intensity, No addition group: no DSPA/OG solution; for Fluorescence intensity, Addition group: sodium distearoylphosphatidate + octyl glucoside solution added. The protocol:
Octyl glucoside (Dojindo Laboratories, 880 mg) was carefully added to phosphate buffered saline (10 ml, pH 7.4) and dissolved with stirring on a water bath at 40° C. Sodium distearoylphosphatidate (148.8 mg) was added to the resulting solution and dissolved with stirring over a water bath at 60° C., and then the solution was added with phosphate buffered saline up to a final volume of 20 ml. The solution was returned to room temperature and stored as frozen aliquots of 1 ml volume before use. The final concentrations of sodium distearoylphosphatidate and octyl glucoside in the solution were 10 mM and 150 mM, respectively.
The above diagnosis marker (54 μg) in the lyophilized state was added with 10% (v/v) dimethyl sulfoxide (DMSO)/phosphate buffered saline (20 μl, pH 7.4) and dissolved. The above solution of sodium distearoylphosphatidate and octyl glucoside (5 μl) was added to 5 μl of the resulting solution, which was warmed beforehand, and mixed by repeating careful suction and ejection using a micropipette to obtain a composition of the present invention in the form of an aqueous solution. By using an indocyanine green (ICG) solution, ICC-sulfo-OSu solution, and water (control) instead of the solution of the diagnosis marker, aqueous compositions were prepared in the same manner as described above.
BHSM-IR (Olympus Optical) was used as an infrared ray microscope that allows observation in visible light to near infrared light region. The microscope was equipped with an excitation light transmitting filter that transmits lights of 710-790 nm (Asahi Bunko) under the sample, and with an excitation light cutting filter that transmits lights of 810-920 nm (Asahi Bunko) over the sample. KP-MI from Hitachi Electronic Engineering was used as a CCD, and fluorescence caught by the CCD was taken into an image collecting apparatus (EVIP-230, Olympus Optical), and recorded in an image recording apparatus (S321S, Olympus Optical) via an amplification system (Olympus Optical).
5 μl of each of the samples was dropped onto a cotton gauze thread (1 cm) placed on an object glass, and images were observed under irradiation by ordinary light and infrared light using the above optical system. […] The recorded images were converted into final images through an image processing comprising the steps of integration of an original image, integration of a background image, formation of a subtraction image, formation of a filtering image, and contrast enhancement by using the above-mentioned apparatus. […] In the table, all of the concentrations indicate those calculated based on ICG concentration. […] In the figure, (a) represents the result obtained under irradiation of ordinary light, and (b) represents the result obtained under irradiation of infrared ray.

The mark [4] stands for this setting: before the spectrum measurement.

Structures can show the parent of a compound that is named as a salt.

Consider `C=C[C@H]1C[N@@]2CC[C@H]1C[C@H]2[C@H](O)c1ccnc2ccc(OC)cc12` [quinine sulfate, reference compound], for which the “Fluorescence intensity (standard)” value in data set [1] (after the spectrum measurement) is 96.0; in data set [1] (setting [4]) it was 100.0; in data set [2] (after the spectrum measurement), 69.5; in data set [2] (setting [4]), 68.0.
Take `CC1(C)C(/C=C/C=C/C=C/C=C2\N(CCCCS(=O)(=O)[O-])c3ccc4ccccc4c3C2(C)C)=[N+](CCCCCC(=O)ON2C(=O)CC(S(=O)(=O)[O-])C2=O)c2ccc3ccccc3c21.[Na+]` (stereo not drawn) [ICG-sulfo-OSu, indocyanine green-N-hydroxysulfosuccinimide ester]: the “Fluorescence intensity, No addition group” value is “+” in data set [3] (10 μg/ml in terms of ICG) and “±” in data set [3] (100 μg/ml in terms of ICG). Further, the “Fluorescence intensity, Addition group” value was “+” in data set [3] (10 μg/ml in terms of ICG) and “++” in data set [3] (100 μg/ml in terms of ICG).
On to `CC1(C)C(/C=C/C=C/C=C/C=C2\N(CCCCS(=O)(=O)O)c3ccc4ccccc4c3C2(C)C)=[N+](CCCCS(=O)(=O)[O-])c2ccc3ccccc3c21` [ICC, indocyanine green], for which the “Fluorescence intensity, No addition group” value in data set [3] (1 mg/ml in terms of ICG, fluorescence at 800 nm or more) is reported as “++”. Moreover, the “Fluorescence intensity, Addition group” value in data set [3] (1 mg/ml in terms of ICG) was “++”.
For the compound `CCCCCCCCO[C@@H]1O[C@H](CO)[C@@H](O)[C@H](O)[C@H]1O` [OG, octyl glucoside], the “shift of fluorescence wavelength to a longer wavelength region versus octyl glucoside concentration” value in data set [1] (ICG-sulfo-OSu labeled anti-mucin antibody) was “sharp increases were observed at concentrations near the critical micelle concentration”. Moreover, the “dependence of fluorescence intensity on octyl glucoside concentration” value in data set [1] (ICG-sulfo-OSu labeled anti-mucin antibody, critical micelle concentration 25 mM) is on record as “Sharp increases of fluorescence intensity were observed at concentrations near the critical micelle concentration”. The Fluorescence wavelength came to 806 nm in data set [1] (OG 1.0 mM); 821 nm in data set [1] (OG 1.50 mM); 804 nm in data set [1] (OG 5.0 mM); 809 nm in data set [1] (OG 10.0 mM); 817 nm in data set [1] (OG 20.0 mM); 817 nm in data set [1] (OG 37.5 mM). In addition, the figures for the Fluorescence wavelength in data set [1] (OG 50.0 mM), in data set [1] (OG 75.0 mM) and in data set [1] (OG 100 mM) were 820 nm, 816 nm and 816 nm, respectively. Moreover, the Fluorescence intensity in data set [1] (OG 1.0 mM) came to 0.150; in data set [1] (OG 1.50 mM), 0.588; in data set [1] (OG 5.0 mM), 0.150; in data set [1] (OG 10.0 mM), 0.189; in data set [1] (OG 20.0 mM), 0.436; in data set [1] (OG 37.5 mM), 0.520. The results for the Fluorescence intensity in data set [1] (OG 50.0 mM), in data set [1] (OG 75.0 mM) and in data set [1] (OG 100 mM) were 0.515, 0.525 and 0.600, respectively.
